# From US5292742A, “Angiotensin II receptor blocking 2,3,6 substituted quinazolinones” (American Cyanamid Company, priority 1993, dated 1994)
# Where “and” joins values, the source holds several entries; their conditions need not be identical. Identical values can stand only once.
# System: angiotensin II (AII) vasopressor response
# Experiment: AII challenge: inhibition of angiotensin II vasopressor response in conscious spontaneously hypertensive rats
# Type: in vivo, rat (Okamoto-Aoki SHR)
# Conditions: 3 mg/kg IV; for % Inhibition (angiotensin blockage) of AII vasopressor response / Average Change (increase in systolic blood pressure after AII): SHR n = 2; for Change (increase in systolic blood pressure after AII), individual rat / Response After AII (systolic blood pressure), individual rat / Control Before AII (systolic blood pressure), individual rat: individual SHR
# From the text: By administering a compound of this invention to a rat, and then challenging with angiotensin II, a blockage of the vasopressor response is realized.
# Conscious Male Okamoto-Aoki SHR, 16-20 weeks old, weighing approximately 330 g are purchased from Charles River Labs (Wilmington, Mass.). Conscious rats are restrained in a supine position with elastic tape. The area at the base of the tail is locally anesthetized by subcutaneous infiltration with 2% procaine. The ventral caudal artery and vein are isolated, and a cannula made of polyethylene (PE) 10-20 tubing (fused together by heat) is passed into the lower abdominal aorta and vena cava, respectively. The cannula is secured, heparinized (1,000 I.U./ml), sealed and the wound is closed. The animals are placed in plastio restraininq cages in an upright position. The cannula is attached to a Statham P23Db pressure transducer, and pulsatile blood pressure is recorded to 10-15 minutes with a Gould Brush recorder. (Chan et al., (Drug Development Res., 18:75-94, 1989).
# Angiotensin II (human sequence, Sigma Chem. Co., St. Louis, Mo.) of 0.05 and 0.1 mcg/kg i.v. is injected into all rats (predosing response). Then a test compound, vehicle or a known angiotensin II antagonist is administered i.v., i.p. or orally to each set of rats. The two doses of angiotensin II are given to each rat again at 30, 60, 90, 120, 180, 240 and 300 minutes post dosing the compound or vehicle. The vasopressor response of angiotensin II is measured for the increase in systolic blood pressure in mmHg. The percentage of antagonism or blockade of the vasopressor response of angiotensin II by a compound is calculated using the vasopressor response (increase in systolic blood pressure) of angiotensin II of each rat predosing the compound as 100%. A compound is considered active if at 30 mg/kg i.v. it antagonized at least 50% of the response.
# [1] = AII 0.05 mcg/kg IV, 30 min post dose
# [2] = AII 0.05 mcg/kg IV, 60 min post dose
# [3] = AII 0.05 mcg/kg IV, 90 min post dose
# [4] = AII 0.05 mcg/kg IV, 120 min post dose
# [5] = AII 0.05 mcg/kg IV, 180 min post dose
# [6] = AII 0.05 mcg/kg IV, 240 min post dose
# [7] = AII 0.05 mcg/kg IV, 300 min post dose
# [8] = AII 0.1 mcg/kg IV, 30 min post dose
# [9] = AII 0.1 mcg/kg IV, 60 min post dose
# [10] = AII 0.1 mcg/kg IV, 90 min post dose
# [11] = AII 0.1 mcg/kg IV, 120 min post dose
# [12] = AII 0.1 mcg/kg IV, 180 min post dose
# [13] = AII 0.1 mcg/kg IV, 240 min post dose
# [14] = AII 0.1 mcg/kg IV, 300 min post dose
structure (smiles),measurement,setting,value
CCCCc1nc2ccc(C3=NN4CCCCC4C3)cc2c(=O)n1Cc1ccc(-c2ccccc2-c2nnn[nH]2)cc1 (stereo not shown) [Example 11],% Inhibition (angiotensin blockage) of AII vasopressor response,[1],82%
same,Average Change (increase in systolic blood pressure after AII),[1],7.5 mmHg
same,"Change (increase in systolic blood pressure after AII), individual rat",[1],10 mmHg and 5 mmHg
same,% Inhibition (angiotensin blockage) of AII vasopressor response,[2],59%
same,Average Change (increase in systolic blood pressure after AII),[2],17.5 mmHg
same,"Change (increase in systolic blood pressure after AII), individual rat",[2],20 mmHg and 15 mmHg
same,% Inhibition (angiotensin blockage) of AII vasopressor response,[3],65%
same,Average Change (increase in systolic blood pressure after AII),[3],15 mmHg
same,"Change (increase in systolic blood pressure after AII), individual rat",[3],15 mmHg
same,% Inhibition (angiotensin blockage) of AII vasopressor response,[4],59%
same,Average Change (increase in systolic blood pressure after AII),[4],17.5 mmHg
same,"Change (increase in systolic blood pressure after AII), individual rat",[4],20 mmHg and 15 mmHg
same,% Inhibition (angiotensin blockage) of AII vasopressor response,[5],59%
same,Average Change (increase in systolic blood pressure after AII),[5],17.5 mmHg
same,"Change (increase in systolic blood pressure after AII), individual rat",[5],20 mmHg and 15 mmHg
same,% Inhibition (angiotensin blockage) of AII vasopressor response,[6],53%
same,Average Change (increase in systolic blood pressure after AII),[6],20 mmHg
same,"Change (increase in systolic blood pressure after AII), individual rat",[6],25 mmHg and 15 mmHg
same,% Inhibition (angiotensin blockage) of AII vasopressor response,[7],41%
same,Average Change (increase in systolic blood pressure after AII),[7],25 mmHg
same,"Change (increase in systolic blood pressure after AII), individual rat",[7],25 mmHg
same,% Inhibition (angiotensin blockage) of AII vasopressor response,[8],63%
same,Average Change (increase in systolic blood pressure after AII),[8],17.5 mmHg
same,"Change (increase in systolic blood pressure after AII), individual rat",[8],20 mmHg and 15 mmHg
same,% Inhibition (angiotensin blockage) of AII vasopressor response,[9],42%
same,Average Change (increase in systolic blood pressure after AII),[9],27.5 mmHg
same,"Change (increase in systolic blood pressure after AII), individual rat",[9],30 mmHg and 25 mmHg
same,% Inhibition (angiotensin blockage) of AII vasopressor response,[10],37%
same,Average Change (increase in systolic blood pressure after AII),[10],30 mmHg
same,"Change (increase in systolic blood pressure after AII), individual rat",[10],30 mmHg
same,% Inhibition (angiotensin blockage) of AII vasopressor response,[11],42%
same,Average Change (increase in systolic blood pressure after AII),[11],27.5 mmHg
same,"Change (increase in systolic blood pressure after AII), individual rat",[11],30 mmHg and 25 mmHg
same,% Inhibition (angiotensin blockage) of AII vasopressor response,[12],37%
same,Average Change (increase in systolic blood pressure after AII),[12],30 mmHg
same,"Change (increase in systolic blood pressure after AII), individual rat",[12],25 mmHg and 35 mmHg
same,% Inhibition (angiotensin blockage) of AII vasopressor response,[13],47%
same,Average Change (increase in systolic blood pressure after AII),[13],25 mmHg
same,"Change (increase in systolic blood pressure after AII), individual rat",[13],20 mmHg and 30 mmHg
same,% Inhibition (angiotensin blockage) of AII vasopressor response,[14],42%
same,Average Change (increase in systolic blood pressure after AII),[14],27.5 mmHg
same,"Change (increase in systolic blood pressure after AII), individual rat",[14],20 mmHg and 35 mmHg
same,"Response After AII (systolic blood pressure), individual rat","after AII 0.05 mcg/kg IV, 30 min post dose",240 mmHg and 225 mmHg
same,"Response After AII (systolic blood pressure), individual rat","after AII 0.05 mcg/kg IV, 60 min post dose",230 mmHg
same,"Response After AII (systolic blood pressure), individual rat","after AII 0.05 mcg/kg IV, 90 min post dose",215 mmHg and 225 mmHg
same,"Response After AII (systolic blood pressure), individual rat","after AII 0.05 mcg/kg IV, 120 min post dose",225 mmHg
same,"Response After AII (systolic blood pressure), individual rat","after AII 0.05 mcg/kg IV, 180 min post dose",230 mmHg and 225 mmHg
same,"Response After AII (systolic blood pressure), individual rat","after AII 0.05 mcg/kg IV, 240 min post dose",235 mmHg and 220 mmHg
same,"Response After AII (systolic blood pressure), individual rat","after AII 0.05 mcg/kg IV, 300 min post dose",240 mmHg and 230 mmHg
same,"Response After AII (systolic blood pressure), individual rat","after AII 0.1 mcg/kg IV, 30 min post dose",245 mmHg and 240 mmHg
same,"Response After AII (systolic blood pressure), individual rat","after AII 0.1 mcg/kg IV, 60 min post dose",230 mmHg and 250 mmHg
same,"Response After AII (systolic blood pressure), individual rat","after AII 0.1 mcg/kg IV, 90 min post dose",235 mmHg and 240 mmHg
same,"Response After AII (systolic blood pressure), individual rat","after AII 0.1 mcg/kg IV, 120 min post dose",230 mmHg and 235 mmHg
same,"Response After AII (systolic blood pressure), individual rat","after AII 0.1 mcg/kg IV, 180 min post dose",240 mmHg and 250 mmHg
same,"Response After AII (systolic blood pressure), individual rat","after AII 0.1 mcg/kg IV, 240 min post dose",245 mmHg and 240 mmHg
same,"Response After AII (systolic blood pressure), individual rat","after AII 0.1 mcg/kg IV, 300 min post dose",245 mmHg
same,"Control Before AII (systolic blood pressure), individual rat","before AII 0.05 mcg/kg IV, 30 min post dose",230 mmHg and 220 mmHg
same,"Control Before AII (systolic blood pressure), individual rat","before AII 0.05 mcg/kg IV, 60 min post dose",210 mmHg and 215 mmHg
same,"Control Before AII (systolic blood pressure), individual rat","before AII 0.05 mcg/kg IV, 90 min post dose",200 mmHg and 210 mmHg
same,"Control Before AII (systolic blood pressure), individual rat","before AII 0.05 mcg/kg IV, 120 min post dose",205 mmHg and 210 mmHg
same,"Control Before AII (systolic blood pressure), individual rat","before AII 0.05 mcg/kg IV, 180 min post dose",210 mmHg
same,"Control Before AII (systolic blood pressure), individual rat","before AII 0.05 mcg/kg IV, 240 min post dose",210 mmHg and 205 mmHg
same,"Control Before AII (systolic blood pressure), individual rat","before AII 0.05 mcg/kg IV, 300 min post dose",215 mmHg and 205 mmHg
same,"Control Before AII (systolic blood pressure), individual rat","before AII 0.1 mcg/kg IV, 30 min post dose",225 mmHg
same,"Control Before AII (systolic blood pressure), individual rat","before AII 0.1 mcg/kg IV, 60 min post dose",200 mmHg and 225 mmHg
same,"Control Before AII (systolic blood pressure), individual rat","before AII 0.1 mcg/kg IV, 90 min post dose",205 mmHg and 210 mmHg
same,"Control Before AII (systolic blood pressure), individual rat","before AII 0.1 mcg/kg IV, 120 min post dose",200 mmHg and 210 mmHg
same,"Control Before AII (systolic blood pressure), individual rat","before AII 0.1 mcg/kg IV, 180 min post dose",215 mmHg
same,"Control Before AII (systolic blood pressure), individual rat","before AII 0.1 mcg/kg IV, 240 min post dose",225 mmHg and 210 mmHg
same,"Control Before AII (systolic blood pressure), individual rat","before AII 0.1 mcg/kg IV, 300 min post dose",225 mmHg and 210 mmHg
